≈ marks a conversion by molar mass, not a printed value. Where two headings read alike, the source gives them in different places.
What was measured:
Type in all cases: cell-based
[1] = system: Acinetobacter calcoaceticus Ac 54; assay: MIC, Experiment 1; details: AC54, A. calcoaceticus Ac 54, Gram -, read-out: Min. inhib. concentr. (MIC)
Method in brief: (§1)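 MIC was determined by the Japan Society of Chemotherapy agar dilution method, working from 1000 μg/ml standard solutions (DMSO or water stocks). S. pneumoniae was precultured in brain heart infusion broth and tested on heart infusion agar with 5% defibrinated horse blood. Other strains used sensitivity test broth and sensitivity test agar.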

[2] = system: Bacillus cereus IAM 1029; assay: MIC, Experiment 1; details: IAM1029, B. cereus IAM 1029, Gram +, read-out: Min. inhib. concentr. (MIC)
Method in brief: (§2)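 Following the Japan Society of Chemotherapy standard, compounds were diluted in water to 1000 μg/ml standard solutions and tested on agar plates. Sensitivity test broth and agar served the staphylococcal and Bacillus strains. Pneumococci were grown in brain heart infusion broth before testing on heart infusion agar with 5% horse blood.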

[3] = system: Bacillus subtilis ATCC 6633; assay: MIC, Experiment 1; details: ATCC6633, B. subtilis ATCC 6633, Gram +, read-out: Min. inhib. concentr. (MIC)
Method in brief: as §2

[4] = system: Enterobacter cloacae 963; assay: MIC, Experiment 1; details: E. cloacae 963, Gram -, read-out: Min. inhib. concentr. (MIC)
Method in brief: as §1

[5] = system: Escherichia coli NIHJ JC-2; assay: MIC, Experiment 1; details: NIHJJC2, E. coli NIHJ JC-2, Gram -, read-out: Min. inhib. concentr. (MIC)
Method in brief: as §1

[6] = system: Klebsiella pneumoniae PCI-602; assay: MIC, Experiment 1; details: PCI602, K. pneumoniae PCI-602, Gram -, read-out: Min. inhib. concentr. (MIC)
Method in brief: as §1

[7] = system: Micrococcus luteus ATCC 9341; assay: MIC, Experiment 1; details: ATCC9341, M. luteus ATCC 9341, Gram +, read-out: Min. inhib. concentr. (MIC)
Method in brief: as §1

[8] = system: Proteus mirabilis IFO 3849; assay: MIC, Experiment 1; details: IFO3849, P. mirabilis IFO 3849, Gram -, read-out: Min. inhib. concentr. (MIC)
Method in brief: as §1

[9] = system: Pseudomonas aeruginosa NCTC 10490; assay: MIC, Experiment 1; details: NCTC10490, P. aeruginosa NCTC 10490, Gram -, read-out: Min. inhib. concentr. (MIC)
Method in brief: as §1

[10] = system: Staphylococcus aureus ATCC 9144; assay: MIC, Experiment 1; details: ATCC9144, S. aureus ATCC 9144, Gram +, read-out: Min. inhib. concentr. (MIC)
Method in brief: as §2

[11] = system: Staphylococcus aureus Cowan I (IID 975); assay: MIC, Experiment 1; details: IID975, S. aureus Cowan I (IID 975), Gram +, read-out: Min. inhib. concentr. (MIC)
Method in brief: as §2

[12] = system: Staphylococcus aureus FDA 209P JC-1; assay: MIC, Experiment 1; details: FDA209P, S. aureus FDA 209P JC-1, Gram +, read-out: Min. inhib. concentr. (MIC)
Method in brief: as §2

[13] = system: Staphylococcus aureus FDA 243; assay: MIC, Experiment 1; details: FDA243, S. aureus FDA 243, Gram +, read-out: Min. inhib. concentr. (MIC)
Method in brief: as §2

[14] = system: Staphylococcus aureus IID 803; assay: MIC, Experiment 1; details: IID803, S. aureus IID 803, Gram +, read-out: Min. inhib. concentr. (MIC)
Method in brief: as §2

[15] = system: Staphylococcus aureus MS-353; assay: MIC, Experiment 1; details: MS353, S. aureus MS-353, Gram +, read-out: Min. inhib. concentr. (MIC)
Method in brief: as §2

[16] = system: Staphylococcus aureus Terajima (IID 670); assay: MIC, Experiment 1; details: IID670, S. aureus Terajima (IID 670), Gram +, read-out: Min. inhib. concentr. (MIC)
Method in brief: as §2

[17] = system: Streptococcus pneumoniae IID 552; assay: MIC, Experiment 1; details: IID552, S. pneumoniae IID 552, Gram +, agar with 5% defibrinated horse blood, read-out: Min. inhib. concentr. (MIC)
Method in brief: as §2

[18] = system: Streptococcus pneumoniae IID 554; assay: MIC, Experiment 1; details: IID554, S. pneumoniae IID 554, Gram +, agar with 5% defibrinated horse blood, read-out: Min. inhib. concentr. (MIC)
Method in brief: as §2

[19] = system: Streptococcus pyogenes Cook; assay: MIC, Experiment 1; details: S. pyogenes Cook, Gram +, agar with 5% defibrinated horse blood, read-out: Min. inhib. concentr. (MIC)
Method in brief: (§3)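 Minimum inhibitory concentrations come from the Japan Society of Chemotherapy procedure. For streptococci, plates were heart infusion agar with 5% defibrinated horse blood after brain heart infusion broth preculture. Non-streptococcal strains were grown in sensitivity test broth and plated on sensitivity test agar.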

[20] = system: Streptococcus pyogenes Su; assay: MIC, Experiment 1; details: S. pyogenes Su, Gram +, agar with 5% defibrinated horse blood, read-out: Min. inhib. concentr. (MIC)
Method in brief: as §3

[21] = system: Streptococcus pyogenes Sv; assay: MIC, Experiment 1; details: S. pyogenes Sv, Gram +, agar with 5% defibrinated horse blood, read-out: Min. inhib. concentr. (MIC)
Method in brief: as §3

[22] = system: clinically isolated Staphylococcus epidermidis; assay: In vitro antibacterial activity against clinical isolates, Experiment 2; details: Staphylococcus epidermidis
Method in brief: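 Clinical isolates collected Nov. 1988 to Jun. 1989 were precultured in sensitivity test broth. MIC was determined on sensitivity test agar. Compound standard solution was 1000 μg/ml (stock) in sterilized distilled water.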

[23] = 25 clinical strains S. epidermidis
[24] = 25 clinical strains S. epidermidis, 50% of strains, read-out: MIC50
[25] = 25 clinical strains S. epidermidis, 90% of strains, read-out: MIC90

Compound | MIC [1] [µg/mL] | MIC [2] [µg/mL] | MIC [3] [µg/mL] | MIC [4] [µg/mL] | MIC [5] [µg/mL] | MIC [6] [µg/mL] | MIC [7] [µg/mL] | MIC [8] [µg/mL] | MIC [9] [µg/mL] | MIC [10] [µg/mL] | MIC [11] [µg/mL] | MIC [12] [µg/mL] | MIC [13] [µg/mL] | MIC [14] [µg/mL] | MIC [15] [µg/mL] | MIC [16] [µg/mL] | MIC [17] [µg/mL] | MIC [18] [µg/mL] | MIC [19] [µg/mL] | MIC [20] [µg/mL] | also measured
CN1Cc2csc3c(C(=O)O)c(=O)c4cc(F)c(N5CCOC(CCl)C5)c1c4n23 (stereo not drawn) [Compound (D), 9,1-(Methylimino)methano-7-fluoro-8-(2-chloromethylmorpholino)-5-oxo-5H-thiazolo[3,2-a]quinoline-4-carboxylic acid] | ≤ 0.006 | 0.025 (≈ 0.0571 µM) | ≤ 0.006 | 0.39 (≈ 0.891 µM) | 0.2 (≈ 0.457 µM) | 0.025 (≈ 0.0571 µM) | 0.05 (≈ 0.114 µM) | 0.39 (≈ 0.891 µM) | 0.39 (≈ 0.891 µM) | 0.013 (≈ 0.0297 µM) | 0.013 (≈ 0.0297 µM) | 0.013 (≈ 0.0297 µM) | ≤ 0.006 | ≤ 0.006 | 0.013 (≈ 0.0297 µM) | 0.025 (≈ 0.0571 µM) | 0.05 (≈ 0.114 µM) | 0.05 (≈ 0.114 µM) | 0.05 (≈ 0.114 µM) | 0.025 (≈ 0.0571 µM) | MIC [21]: 0.05 µg/mL (≈ 0.114 µM); MIC [22, 23]: 0.006 to 0.39 µg/mL (≈ 0.0137 to 0.891 µM); MIC50 [22, 24]: 0.013 µg/mL (≈ 0.0297 µM); MIC90 [22, 25]: 0.2 µg/mL (≈ 0.457 µM)
CCOCC1CN(c2c(F)cc3c(=O)c(C(=O)O)c4scc5n4c3c2N(C)C5)CCO1 (stereo not drawn) [Compound (Q), 9,1-(Methylimino)methano-7-fluoro-8-(2-ethoxymethylmorpholino)-5-oxo-5H-thiazolo[3,2-a]quinoline-4-carboxylic acid] | 0.05 (≈ 0.112 µM) | 0.1 (≈ 0.223 µM) | 0.05 (≈ 0.112 µM) | 1.56 (≈ 3.49 µM) | 0.78 (≈ 1.74 µM) | 0.2 (≈ 0.447 µM) | 0.39 (≈ 0.872 µM) | 1.56 (≈ 3.49 µM) | 1.56 (≈ 3.49 µM) | 0.025 (≈ 0.0559 µM) | 0.05 (≈ 0.112 µM) | 0.1 (≈ 0.223 µM) | 0.05 (≈ 0.112 µM) | 0.05 (≈ 0.112 µM) | 0.1 (≈ 0.223 µM) | 0.1 (≈ 0.223 µM) | 0.39 (≈ 0.872 µM) | 0.39 (≈ 0.872 µM) | 0.2 (≈ 0.447 µM) | 0.2 (≈ 0.447 µM) | MIC [21]: 0.39 µg/mL (≈ 0.872 µM); MIC50 [22]: 0.025 µg/mL (≈ 0.0559 µM); MIC [22, 23]: 0.006 to 0.78 µg/mL (≈ 0.0134 to 1.74 µM); MIC90 [22, 25]: 0.39 µg/mL (≈ 0.872 µM)
CN1Cc2csc3c(C(=O)O)c(=O)c4cc(F)c(N5CCN6CCOC[C@H]6C5)c1c4n23 [Compound (F), 9,1-(Methylimino)methano-7-fluoro-8-[(6R)-1,8-diaza-4-oxabicyclo[4.4.0]deca-8-yl]-5-oxo-5H-thiazolo[3,2-a]quinoline-4-carboxylic acid] | 0.013 (≈ 0.0292 µM) | 0.025 (≈ 0.0562 µM) | 0.013 (≈ 0.0292 µM) | 0.78 (≈ 1.75 µM) | 0.39 (≈ 0.877 µM) | 0.013 (≈ 0.0292 µM) | 0.2 (≈ 0.45 µM) | 0.78 (≈ 1.75 µM) | 0.78 (≈ 1.75 µM) | 0.025 (≈ 0.0562 µM) | 0.025 (≈ 0.0562 µM) | 0.025 (≈ 0.0562 µM) | 0.013 (≈ 0.0292 µM) | 0.013 (≈ 0.0292 µM) | 0.025 (≈ 0.0562 µM) | 0.05 (≈ 0.112 µM) | 0.05 (≈ 0.112 µM) | 0.05 (≈ 0.112 µM) | 0.05 (≈ 0.112 µM) | 0.05 (≈ 0.112 µM) | MIC [21]: 0.05 µg/mL (≈ 0.112 µM); MIC90 [22]: 0.78 µg/mL (≈ 1.75 µM); MIC [22, 23]: 0.013 to 1.56 µg/mL (≈ 0.0292 to 3.51 µM); MIC50 [22, 24]: 0.05 µg/mL (≈ 0.112 µM)
CN1Cc2csc3c(C(=O)O)c(=O)c4cc(F)c(N5CCOC(CO)C5)c1c4n23 (stereo not drawn) [Compound (B), 9,1-(Methylimino)methano-7-fluoro-8-(2-hydroxymethylmorpholino)-5-oxo-5H-thiazolo[3,2-a]quinoline-4-carboxylic acid] | ≤ 0.006 | 0.025 (≈ 0.0596 µM) | ≤ 0.006 | 0.2 (≈ 0.477 µM) | 0.1 (≈ 0.238 µM) | ≤ 0.006 | 0.1 (≈ 0.238 µM) | 0.39 (≈ 0.93 µM) | 0.39 (≈ 0.93 µM) | ≤ 0.006 | 0.013 (≈ 0.031 µM) | 0.013 (≈ 0.031 µM) | ≤ 0.006 | 0.013 (≈ 0.031 µM) | 0.025 (≈ 0.0596 µM) | 0.025 (≈ 0.0596 µM) | 0.025 (≈ 0.0596 µM) | 0.05 (≈ 0.119 µM) | 0.025 (≈ 0.0596 µM) | 0.025 (≈ 0.0596 µM) | MIC [21]: 0.05 µg/mL (≈ 0.119 µM); MIC50 [22]: 0.025 µg/mL (≈ 0.0596 µM); MIC [22, 23]: 0.006 to 0.78 µg/mL (≈ 0.0143 to 1.86 µM); MIC90 [22, 25]: 0.39 µg/mL (≈ 0.93 µM)
